Data from US11597717B2, “Substituted imidazoles as PLXDC2 ligands” (Landos Biopharma, Inc., priority 2020, dated 2023).

How the values were obtained:
CD4+ T cells = experiment: Immunological screening in vitro in CD4+ T cells (flow cytometry); assay type: cell-based, C57BL/6 mice; details: for significance of change in IFNγ/TNFα production relative to vehicle treated control: tested at 100 nM and 1 μM, P<0.05; for reduction in IFNγ production: 24 h, anti-CD3/CD28, PMA/ionomycin last 6 h
Source text: (§1) Cell culture. Spleens were excised from C57BL/6 mice. Spleens were crushed between the frosted ends of microscope slides and filtered to provide a cellular suspension. Red blood cells were lysed through hypotonic lysis. Remaining cells were washed and filtered. CD4+ T cells were enriched within the suspension using magnetic sorting based negative selection. Cells were collected and plated within 96 well plates coated with anti-CD3/CD28 and cultured in the presence of PX-02, PX-04, PX-07, PX-08 and PX-09 at 0, 0.1 or 1 micromolar for 24 h. During the last 6 h of culture, cells were stimulated with phorbol 12-myristate-13-acetate (PMA) and ionomycin.
(§2) Immunological analysis. Cells were collected from 96 well plates and stained with a cocktail of antibodies for immunophenotyping by flow cytometry. Culture supernatant was collected and assayed for cytokine concentrations by cytometric bead array. Data was captured on a BD FACS Celesta and analyzed using FACSDiva.

[1] = test system: DBA/2 mice injected with STZ; experiment: STZ model of diabetic nephropathy; assay type: in vivo; details: daily oral gavage; for albumin/creatinine ratio in urine: 12 weeks of treatment
Experimental: STZ models. Streptozotocin (STZ) can be used to induce diabetes in both rats and mice. Mice were used for the assessment of nephropathy. DBA/2 mice were injected with 40 mg/kg STZ by intraperitoneal injection for 5 consecutive days. Mice were randomized to vehicle- or PX-04-treated arms after confirmation of diabetes on day 10 (n=12). PX-04 was administered daily for 12 weeks by oral gavage after a damage accrual stage. Separately, mice were randomized to vehicle- or PX-07-treated arms after confirmation of diabetes on day 10 (n=8). PX-07 was administered daily for 12 weeks by oral gavage after a damage accrual stage.
Kidney function. Kidney function was assessed by collection of urine and histological assessment of kidneys. Urine was assayed for albumin/creatinine ratio. Kidneys were scored using a composite scoring method (0-9) encompassing glomerular area, mesangial expansion, and renal fibrosis.

[2] = test system: bone marrow-derived macrophages (BMDMs); experiment: Immunological screening in vitro in LPS-challenged bone marrow-derived macrophages (qRT-PCR, Luminex); assay type: cell-based, C57BL/6 mice; details: 0.1 and 1 micromolar, dose dependent; for IFNγ in the supernatant / IL-6 in the supernatant / TNF in the supernatant / concentration of IL-10 in the supernatant: Luminex, LPS 6 h; for IL-10 expression by RNA / expression of TNF by RNA: qRT-PCR, LPS 2 h
Experimental: Cell culture. Bone marrow was flushed from the femur and tibia of C57BL/6 mice. Bone marrow was then resuspended and filtered to provide a cellular suspension. Red blood cells were lysed through hypotonic lysis. Remaining cells were washed and filtered. Isolated cells were incubated in the presence of M-CSF for 7 days to differentiate cells into macrophages. Cells were harvested, plated within 24 well plates and cultured in the presence of PX-04 or PX-07 at 0, 0.1 or 1 micromolar for 12 h. During the last 2-6 h of culture, cells were stimulated with lipopolysaccharide. After stimulation for 2 h, cells were collected for the isolation of RNA. Gene expression was quantified by qRT-PCR. After stimulation for 6 h, supernatant was collected for detection of cytokines by Luminex.

[3] = test system: CD4+ T cells deficient in PLXDC2; experiment: Specificity test in PLXDC2 deficient CD4+ T cells; assay type: cell-based; details: 100 nM or 1 μM; for IFNγ in the absence of PLXDC2: FIG. 4A; for TNFα in the absence of PLXDC2: FIG. 4B
Experimental: FIGS. 4A and 4B. Immunological validation of PX-04 and PX-07 specificity in CD4+ T cells. Percentages of IFNγ+(FIG. 4A) and TNFα+ (FIG. 4B) CD4+ T cells deficient in PLXDC2 were measured by flow cytometry after in vitro treatment of cells with PX compounds at concentrations of 0.1 and 1 micromolar. Statistical significance (P<0.05) is marked by asterisks.
as §1, §2
To determine the specificity of response to the PLXDC2 receptor, PX-04 and PX-07 were tested further in PLXDC2 deficient cells.

mice challenged with DSS = experiment: DSS model of colitis (acute IBD model); assay type: in vivo
Experimental: DSS model. Mice were given DSS in drinking water for seven days to induce disruption of the epithelial layer. At project initiation, mice were 8 weeks of age and began dosing 24 hours after being placed on DSS. Mice were weighed and scored daily for symptoms of disease (diarrhea, rectal bleeding, rectal inflammation, overall behavior). PX-04 was prepared within a 0.5% methylcellulose (12-15 cP) solution. Dosage used was 20 mg/kg delivered once daily. Dosage was calculated based off mean body weights for each gender. Oral dosage was delivered by orogastric gavage of dosage in 0.2 mL volume. Flow Cytometry. Colons were collected into RPMI/FBS buffer containing collagenase (300 U/mL) and DNase (50 U/mL) for digestion. Tissues were digested for 60 minutes under stirring at 37° C. Resultant cellular suspensions were filtered through 100 μm strainers, centrifuged (300×g, 8 min), and washed in fresh RPMI. Following filtration of the resulting single cell suspensions, immune cells were purified by Percoll gradient of cell-containing 40% Percoll overlayed onto 70% Percoll solution. After centrifugation, interphase was collected and washed to obtain enriched colonic lamina propria cell fractions. Cells were labeled with mixtures of extracellular (CD45, CD3, CD4, CD8, CD19, NK1.1, CD25, F4/80, CD11b, Gr1, CX3CR1, CD64) and intracellular (Tbet, RORγT, FOXP3, IFNγ, IL17, IL10) antibodies in a sequential live staining in 96-well plates. Data was acquired using a FACS Celesta flow cytometer with FACSDiva software.

[4] = test system: rats with collagen-induced arthritis; experiment: Collagen-induced arthritis in rats; assay type: in vivo, Lewis rats
Experimental: (§3) Models. Six-week-old C57Bl/6 mice were immunized with 200 μg of chicken collagen emulsified in complete Freund's adjuvant by intradermal injections at the base of the tail (n=8). Mice were treated with 5 mg/kg of PX-07 or vehicle daily for four weeks. Five- to six-week-old Lewis rats (n=8) were immunized with 200 μg of bovine collagen emulsified in incomplete Freund's adjuvant by intradermal injection into the base of the tail. A second boosting immunization was given after one week. PX-04 was administered daily at 2 or 20 mg/kg for 3 weeks.
(§4) Immunological analysis. Spleens were excised from mice and inguinal lymph nodes were excised from rats. Tissues were crushed and filtered to provide a cellular suspension. Red blood cells were lysed. Cells were labeled with mixtures of extracellular (CD45, CD3, CD4, CD8, B220, CD19, CD138, CD21, CD24, CD1d, CD11b, CD86, CD80) and intracellular (BCL6, IL21, IL10, TNF) antibodies in a sequential live staining in 96-well plates in preparation for flow cytometry. Data was captured on a BD FACS Celesta and analyzed using FACSDiva.

NZB/W F1 mice = experiment: NZB/W F1 model of SLE; assay type: in vivo; details: 10 mg/kg daily oral
Experimental: NZB/W F1 model. Twenty-four-week-old, female NZB/W F1 mice were randomized into vehicle or PX-04 treated arms based on baseline urine protein levels (n ═10). PX-04 was administered daily at 10 mg/kg for 12 weeks. Mice will be weighed on a weekly basis to update dosage formulation. Dosage will be calculated based off mean body weights.
Immunological analysis. Urine was collected for assay for protein content to test for kidney function at baseline, 6, and 12 weeks of treatment. Spleens were excised, crushed and filtered to provide a cellular suspension. Red blood cells were lysed. Cells were labeled with mixtures of extracellular (CD45, CD3, CD4) and intracellular (IL10) antibodies in a sequential live staining in 96-well plates in preparation for flow cytometry. Data was captured on a BD FACS Celesta and analyzed using FACSDiva.

[5] = test system: mice with collagen-induced arthritis; experiment: Collagen-induced arthritis in mice; assay type: in vivo, C57Bl/6 mice; details: 5 mg/kg daily oral, four weeks
Experimental: as §3, §4

[6] = 20 mg/kg oral, colonic lamina propria, day 7
[7] = 2 and 20 mg/kg daily oral, 3 weeks, relative to vehicle

SMILES | significance of change in IFNγ/TNFα production relative to vehicle treated control (CD4+ T cells) | albumin/creatinine ratio in urine [1] | IFNγ in the supernatant [2] | IL-6 in the supernatant [2] | TNF in the supernatant [2] | concentration of IL-10 in the supernatant [2] | IL-10 expression by RNA [2] | expression of TNF by RNA [2] | IFNγ in the absence of PLXDC2 [3] | TNFα in the absence of PLXDC2 [3] | reduction in IFNγ production (CD4+ T cells; 100 nM) [%] | reduction in IFNγ production (CD4+ T cells; 1 μM) [%] | other results
O=C(Nc1ccccc1)c1nc(-c2cccc(Oc3ccccc3)c2)c[nH]1 [PX-02, N-Phenyl-4-(m-phenoxyphenyl)-1H-imidazole-2-carboxamide] | only induced significant changes at 1 μM | – | – | – | – | – | – | – | – | – | – | – | –
O=C(Nc1ccc2c(c1)COC2)c1ncc(-c2cccc(Oc3ccccc3)c2)[nH]1 [PX-04, N-(1,3-Dihydro-5-isobenzofuranyl)-5-(m-phenoxyphenyl)-1H-imidazole-2-carboxamide] | significant decrease at both tested concentrations | significantly reduced | greatly suppressed | greatly suppressed | greatly suppressed | higher | slight increase | inhibited | no difference from vehicle | no difference from vehicle | ~55 | ~80 | cumulative disease activity (mice challenged with DSS; 20 mg/kg once daily oral gavage, 7 days of DSS): decreased; Th17 cells in the colon (mice challenged with DSS; [6]): greatly decreased; proportion of CD4+ T cells with IFNγ production (mice challenged with DSS; [6]): lower proportion; proportion of NK cells with IFNγ production (mice challenged with DSS; [6]): lower proportion; proportion of TNF producing dendritic cells (mice challenged with DSS; [6]): decreased; regulatory CD4+ T cells in the colon (mice challenged with DSS; [6]): slight increase; histological severity of disease in hind ankles (joint space, cartilage erosion, leukocytic infiltration, angiogenesis) ([4]; 2 mg/kg oral, relative to vehicle): reduced severity of disease; gene expression of CXCL1 within the synovium [4, 7]: reduced; gene expression of IL-1β within the synovium [4, 7]: reduced; gene expression of IL-6 within the synovium [4, 7]: reduced; ratio of TNF+ to IL10+ cells within CD4+ T cell fraction, inguinal lymph node ([4]; daily oral gavage, 3 weeks): decreased; ratio of TNF+ to IL10+ cells within myeloid cell fraction, inguinal lymph node ([4]; daily oral gavage, 3 weeks): decreased; proportion of splenic CD4+IL10+ T cells relative to vehicle-treated mice (NZB/W F1 mice; after 12 weeks): increased proportion; proteinuria relative to baseline on average (NZB/W F1 mice; at 12 weeks of treatment): slight improvement; proteinuria grade (NZB/W F1 mice; over 12 weeks): protected mice from the worsening
Cn1cccc(NC(=O)c2ncc(-c3cccc(Oc4ccccc4)c3)[nH]2)c1=O [PX-07, N-(1-Methyl-2-oxo-1H-pyrid-3-yl)-5-(m-phenoxyphenyl)-1H-imidazole-2-carboxamide] | significant decrease at both tested concentrations | significantly reduced | greatly suppressed | greatly suppressed | greatly suppressed | higher | slight increase | inhibited | no difference from vehicle | no difference from vehicle | ~55 | ~80 | histological score of kidney damage (composite 0-9) ([1]; after 12 weeks of treatment): significantly reduced; proportion of CD1d+T2-MZP B cells in the spleen [5]: increased; proportion of T follicular helper cells (CD4+IL21+BCL6+) in the spleen [5]: decreased
O=C(Nc1ccc[nH]c1=O)c1ncc(-c2cccc(Oc3ccccc3)c2)[nH]1 [PX-08, N-(2-Oxo-1H-pyrid-3-yl)-5-(m-phenoxyphenyl)-1H-imidazole-2-carboxamide] | significant decrease at both tested concentrations | – | – | – | – | – | – | – | – | – | – | – | –
O=C(O)c1cccc(NC(=O)c2ncc(-c3cccc(Oc4ccccc4)c3)[nH]2)c1 [PX-09, m-[5-(m-Phenoxyphenyl)-1H-imidazol-2-ylcarbonylamino]benzoic acid] | significant decrease at both tested concentrations | – | – | – | – | – | – | – | – | – | – | – | –
